Assay results taken from patent US6447748B1, “Benzamide compounds for cancer imaging and therapy” (Research Corporation Technologies, Inc., priority 1993, dated 2002).

Experiments:
[1] = Biodistribution of 4-[125I]PEMP in Sprague Dawley rats; format: in vivo; details: for Biodistribution Blood / Biodistribution Bone / Biodistribution Brain / Biodistribution Heart / Biodistribution Kidney / Biodistribution Liver / Biodistribution Lung / Biodistribution Muscle / Biodistribution Spleen / Biodistribution Thyroid: average of four rats
Description: Balb/c nu/nu mice (17-22 g) were injected intravenously with 0.2 ml of a saline solution containing [^125I]PAB (5-6 μCi). […] The values obtained were normalized to a mouse weighing 20 g.
Biodistribution experiments were performed to assess the clearance of N-[(4-[^125I]-iodophenyl)ethyl]-N-methyl-2-(1-piperidinyl)-ethylamine, 4-[^125I]PEMP. The compound was prepared according to the procedure described in Example 16. For in vivo studies, Sprague Dawley rats were used. Animal biodistribution assays were performed according to the procedure described in Example 11.

[2] = tested on: human melanoma xenograft tumors (A2058); assay: Scintigraphic imaging of nude mice bearing human melanoma xenografts; format: in vivo, Balb/c nu/nu mice
Description: A2058 cells, derived from a brain metastasis of human malignant melanoma (Todaro et al. 1980 Proc. Natl. Acad. Sci. USA 77: 5258) were obtained from the National Institutes of Health. A human lung adenocarcinoma cell line, NCI-838, was obtained from the National Cancer Institute. These cells were grown in DMEM2 medium (Dulbecco's modification of Eagle's medium, […]) supplemented with 10% fetal bovine serum and 0.03% L-glutamine.
Balb/c nu/nu mice (17-22 g) bearing human melanoma or non-small cell lung carcinoma xenograft tumors were injected intravenously with 0.2 ml of saline solution containing [^131I]PAB or [^131I]DAB (150-200 μCi). The animals were anesthetized with ketamine containing rompun before the imaging studies. The images were obtained using a scintigraphic camera with a pin-hole collimator at 6 and 24 hr. post injection.

CN(CCc1ccc([125I])cc1)CCN1CCCCC1 [4-[^125I]PEMP, N-[(4-[^125I]-iodophenyl)ethyl]-N-methyl-2-(1-piperidinyl)-ethylamine]
clearance [1]: rapid clearance from the liver, lungs and kidneys | Biodistribution Blood ([1]; 1 hr.): 1.82 ± 0.20 % ID/whole organ | Biodistribution Bone ([1]; 1 hr.): 0.23 ± 0.00 % ID/whole organ | Biodistribution Brain ([1]; 1 hr.): 1.79 ± 0.21 % ID/whole organ | Biodistribution Heart ([1]; 1 hr.): 0.30 ± 0.02 % ID/whole organ | Biodistribution Kidney ([1]; 1 hr.): 4.57 ± 0.88 % ID/whole organ | Biodistribution Liver ([1]; 1 hr.): 16.56 ± 2.19 % ID/whole organ | Biodistribution Lung ([1]; 1 hr.): 4.91 ± 0.23 % ID/whole organ | Biodistribution Muscle ([1]; 1 hr.): 15.60 ± 3.04 % ID/whole organ | Biodistribution Spleen ([1]; 1 hr.): 2.52 ± 0.49 % ID/whole organ | Biodistribution Thyroid ([1]; 1 hr.): 0.19 ± 0.02 % ID/whole organ | Biodistribution Blood ([1]; 6 hr.): 2.59 ± 0.32 % ID/whole organ | Biodistribution Bone ([1]; 6 hr.): 0.28 ± 0.01 % ID/whole organ | Biodistribution Brain ([1]; 6 hr.): 0.57 ± 0.01 % ID/whole organ | Biodistribution Heart ([1]; 6 hr.): 0.18 ± 0.00 % ID/whole organ | Biodistribution Kidney ([1]; 6 hr.): 1.45 ± 0.03 % ID/whole organ | Biodistribution Liver ([1]; 6 hr.): 6.39 ± 0.48 % ID/whole organ | Biodistribution Lung ([1]; 6 hr.): 1.22 ± 0.12 % ID/whole organ | Biodistribution Muscle ([1]; 6 hr.): 11.73 ± 0.63 % ID/whole organ | Biodistribution Spleen ([1]; 6 hr.): 0.96 ± 0.10 % ID/whole organ | Biodistribution Thyroid ([1]; 6 hr.): 0.20 ± 0.05 % ID/whole organ | Biodistribution Blood ([1]; 24 hr.): 1.01 ± 0.12 % ID/whole organ | Biodistribution Bone ([1]; 24 hr.): 0.17 ± 0.00 % ID/whole organ | Biodistribution Brain ([1]; 24 hr.): 0.23 ± 0.00 % ID/whole organ | Biodistribution Heart ([1]; 24 hr.): 0.05 ± 0.00 % ID/whole organ | Biodistribution Kidney ([1]; 24 hr.): 0.50 ± 0.02 % ID/whole organ | Biodistribution Liver ([1]; 24 hr.): 1.83 ± 0.16 % ID/whole organ | Biodistribution Lung ([1]; 24 hr.): 0.34 ± 0.03 % ID/whole organ | Biodistribution Muscle ([1]; 24 hr.): 5.55 ± 1.25 % ID/whole organ | Biodistribution Spleen ([1]; 24 hr.): 0.28 ± 0.03 % ID/whole organ | Biodistribution Thyroid ([1]; 24 hr.): 0.58 ± 0.03 % ID/whole organ

CCN(CC)CCNC(=O)c1ccc([131I])cc1 [[^131I]DAB, ^131I-N-(diethylaminoethyl)4-iodobenzamide, reference compound]
detection in the tumor, scintigraphic image ([2]; 6 and 24 hrs. post injection): no [^131I]DAB was detected in the tumor | uptake in the liver, scintigraphic image ([2]; 6 and 24 hrs. post-administration): considerable uptake
